≈ marks a conversion by molar mass, not a printed value. Read-outs that look alike come from different tables or passages of the source.
Key:
E. coli = assay: Time-to-kill (kill curve) assay; format: cell-based, Escherichia coli
Method: Bacteria were cultured to mid-log phase (OD600 ∼0.4) in LB media with shaking and then diluted to approximately 10^4 to 10^5 CFU/mL. Bacteria were then treated with compound at the MIC, 2×MIC, and 4×MIC (as determined by the MIC assays). Over the course of 24 hours, bacteria were incubated at 37°C and aliquots removed at various time intervals, diluted, and plated on LB agar. Plated bacteria were incubated overnight at 37°C and CFU/mL were calculated for each time interval.

E. faecalis V583 = assay: Bacterial viability assay; format: cell-based, Enterococcus faecalis; details: Enterococcus faecalis, 1 h, one hour in PBS, CFU, ± SEM
Method: (§1) Supplementary file pone.0097742.s003.doc: Table S1 Bacterial viability assays. Bacteria were grown at 37°C to mid-log phase (OD600 ∼0.4). The bacteria were diluted to approximately 10^4 to 10^5 colony forming units (CFU) per milliliter and added to a solution of phosphate buffered saline (PBS, 16 mM phosphate, 0.14 M NaCl, pH 7.2) containing the compound at varied concentrations. Samples were incubated at 37°C for one hour and then plated on Luria Bertani (LB) agar at appropriate dilutions in PBS. The plates were incubated overnight at 37°C and colonies enumerated the following day. IC50s were calculated from graphs of CFU as a function of compound concentration. Chlorhexidine was used as a positive control. […] (DOC) Click here for additional data file.
(§2) Bacterial viability assays. Bacteria were grown at 37°C to mid-log phase (OD600 ~0.4). The bacteria were diluted to approximately 10^4 to 10^5 colony forming units (CFU) per milliliter and added to a solution of phosphate buffered saline (PBS, 16 mM phosphate, 0.14 M NaCl, pH 7.2) containing the compound at varied concentrations. Samples were incubated at 37°C for one hour and then plated on Luria Bertani (LB) agar at appropriate dilutions in PBS. The plates were incubated overnight at 37°C and colonies enumerated the following day. IC50s were calculated from graphs of CFU as a function of compound concentration. Chlorhexidine was used as a positive control.

E. faecalis MSU#10 = assay: Bacterial viability assay; format: cell-based, Enterococcus faecalis; details: Enterococcus faecalis, 1 h
Method: as §1, §2

MRSA strain LAC, USA300 [1] = assay: Minimum inhibitory concentration (microdilution); format: cell-based, Staphylococcus aureus
Method: (§3) Minimum inhibitory concentration (MIC) values were determined for those compounds showing the most antibacterial activity in the bacterial viability assays (see Supplemental Materials) against each of the strains of bacteria using a microdilution method in 96 well plates with LB media according to guidelines published by the British Society for Antimicrobial Chemotherapy. Minimum bactericidal concentrations (MBC) were determined by plating 10 µL and 100 µL from each well showing no signs of growth after overnight incubation of the MIC plates and determining the minimum concentration showing a 3-log reduction of viable bacteria. MIC and MBC were also determined in cation-adjusted Mueller-Hinton broth (Hardy Diagnostics, Santa Maria, CA) for some compounds and strains.

[2] = Cell toxicity assay (MTS); format: cell-based, human; details: human, MTS assay, concentration which killed 50% of the cells
Method: The HaCaT cell line was grown in Epilife medium (MEPI500Ca) with human keratinocyte growth supplement (Invitrogen, San Diego, CA). Both types of cells were harvested using Tryspin/EDTA and diluted to 1×10^5 cells per well in a 96-well plate. Ten concentrations covering five orders of magnitude were tested with six replicates per concentration. […] MTS/PMS solution (Promega, Madison, WI) was added to the wells and absorbance was measured at 490 nm two to four hours later. Data was analyzed using GraphPad Prism version 5.0 (GraphPad Software, La Jolla, CA) using a variable slope inhibition dose response curve.

MRSA strain LAC, USA300 [3] = assay: Minimum bactericidal concentration; format: cell-based, Staphylococcus aureus; details: MHB, median, 3-log reduction of viable bacteria
Method: as §3

[4] = system: Acinetobacter baumannii ATCC BAA1605; assay: Minimum inhibitory concentration (microdilution); format: cell-based; details: ATCCBAA1605, A. baumannii ATCC BAA1605, LB media, median of at least 3 determinations
Method: as §3

[5] = system: Enterococcus faecalis ATCC V583; assay: Minimum inhibitory concentration (microdilution); format: cell-based; details: Enterococcus faecalis, ATCCV583; E. faecalis V583; LB media; median of at least 3 determinations; read-out: MIC
Method: as §3

[6] = system: Escherichia coli (strain K91); assay: Minimum inhibitory concentration (microdilution); format: cell-based; details: E. coli K91
Method: as §3

[7] = system: Enterococcus faecalis MSU#10; assay: Minimum inhibitory concentration (microdilution); format: cell-based; details: Enterococcus faecalis; E. faecalis MSU#10; LB media; median of at least 3 determinations; read-out: MIC
Method: as §3

[8] = system: Staphylococcus aureus RN4220; assay: Minimum inhibitory concentration (microdilution); format: cell-based; details: S. aureus RN4220
Method: as §3

[9] = system: Acinetobacter baumannii ATCC 19606; assay: Minimum inhibitory concentration (microdilution); format: cell-based; details: Acinetobacter baumannii, ATCC19606; A. baumannii ATCC 19606; LB media; median of at least 3 determinations; read-out: MIC
Method: as §3

[10] = system: Pseudomonas aeruginosa (strain PA01); assay: Minimum inhibitory concentration (microdilution); format: cell-based; details: Pseudomonas aeruginosa; P. aeruginosa PA01; LB media; median of at least 3 determinations; read-out: MIC
Method: as §3

MRSA = assay: In vivo MRSA challenge (intraperitoneal infection); parameters: species or system BALB/c mice; details: mice, 8 h post infection
Method: Three groups of BALB/c mice (8 mice per group) were infected by intraperitoneal (i.p.) injection with 5×10^7 MRSA in 100 µl sterile PBS [16], [17]. The first treatment group was injected i.p. with 100 µl of 100 µM THAM trisphenylguanide in PBS immediately after infection. The second group was injected i.p. with 100 µl of 100 µM THAM trisphenylguanide one hour post-infection. The control group was injected with 100 µl PBS. At eight hours post-infection, all mice were euthanized. An intraperitoneal lavage using 10 ml PBS was performed to recover bacteria within the peritoneal cavity and plated at multiple dilutions on TSA plates. The heart and kidney were removed for evaluation of systemic infection. Briefly, tissues were weighed, homogenized, and plated at multiple dilutions on TSA plates. TSA plates were incubated overnight at 37°C at 5% CO2 and CFU enumerated the next day.

[11] = Staphylococcus aureus, MRSA USA300, LB media, median of at least 3 determinations, read-out: MIC
[12] = MDA-MB-231 breast cancer cells (ATCC HTB-26), MDA-231
[13] = Escherichia coli, LB media, median of at least 3 determinations, read-out: MIC
[14] = Staphylococcus aureus, LB media, median of at least 3 determinations, read-out: MIC
[15] = 100 µM i.p. one hour after MRSA infection

Row | SMILES | IC50 (E. faecalis V583) | MIC (MRSA strain LAC, USA300 [1]; MRSA USA300, MHB, median) | MIC (MRSA strain LAC, USA300 [1]; [11]) | CC50 ([2]; HaCaT keratinocytes) | CC50 [2, 12] | MBC (MRSA strain LAC, USA300 [3]) | MIC [4] | MIC [5] | MIC ([6]; MHB, median) | MIC [6, 13] | MIC [7] | MIC ([8]; MHB, median) | MIC [8, 14] | MIC [9] | MIC [10] | further results
1 | [H]/N=C(\N/C(=N/[H])NCCCCCCNC(=N)NC(=N)Nc1ccc(Cl)cc1)Nc1ccc(Cl)cc1 [Chlorhexidine, chlorhexidine, reference compound] | 16 ± 6 µM | 0.67 µg/mL (≈ 1.33 µM) | 1 µg/mL (≈ 1.98 µM) | 1.9 µg/mL (≈ 3.76 µM) | 2.6 µg/mL (≈ 5.14 µM) | 0.89 µg/mL (≈ 1.76 µM) | 16 µg/mL (≈ 31.7 µM) | 6 µg/mL (≈ 11.9 µM) | 0.44 µg/mL (≈ 0.87 µM) | 1 µg/mL (≈ 1.98 µM) | 4 µg/mL (≈ 7.91 µM) | 0.89 µg/mL (≈ 1.76 µM) | 1 µg/mL (≈ 1.98 µM) | 16 µg/mL (≈ 31.7 µM) | 8 µg/mL (≈ 15.8 µM) | time after which no viable cells remained (E. coli; 2 mg/L): 6 h; reduction in CFU/mL (E. coli; 2 mg/L, within 4 hours of treatment): > 3 log; IC50 (E. faecalis MSU#10): 14 ± 6 µM
2 | N=C(NCCCCCCNc1nc(NCCCCCCNC(=N)Nc2ccccc2)nc(NCCCCCCNC(=N)Nc2ccccc2)n1)Nc1ccccc1 [THAM-3ΦG, Trishexylaminomelamine trisphenylguanide] | 65 ± 1 µM | 1 µg/mL (≈ 1.29 µM) | 2 µg/mL (≈ 2.57 µM) | 14 µg/mL (≈ 18 µM) | 7.6 µg/mL (≈ 9.77 µM) | 1 µg/mL (≈ 1.29 µM) | > 256 µg/mL | 256 µg/mL (≈ 329 µM) | 8 µg/mL (≈ 10.3 µM) | 8 µg/mL (≈ 10.3 µM) | 32 µg/mL (≈ 41.1 µM) | 1 µg/mL (≈ 1.29 µM) | 2 µg/mL (≈ 2.57 µM) | > 256 µg/mL | 48 µg/mL (≈ 61.7 µM) | time to kill all the cells (E. coli; 4×MIC (32 mg/L)): 24 h; reduction in CFU/mL (E. coli; 4×MIC (32 mg/L), only after 4 hours of treatment): > 3 log; IC50 (E. faecalis MSU#10; E. faecalis MSU#10, one hour in PBS, CFU, ± SEM, read-out: IC50): 2.8 ± 0.6 µM; reduction in bacterial burden in both organs (kidneys, heart) and IP lavage (MRSA; 100 µM i.p. immediately after MRSA challenge, versus PBS): approximately 3 log; reduction of mean CFUs in IP lavages (MRSA; [15]): 2 fold; reduction of mean CFUs in heart (MRSA; [15]): 3 fold; reduction of mean CFUs in kidneys (MRSA; [15]): 20 fold; MIC (MRSA strain LAC, USA300 [1]; Staphylococcus aureus, against MRSA, as stated in the abstract, read-out: MIC): ~1 µg/mL (≈ 1.29 µM)
